Data from ChEMBL document CHEMBL1201862, “PubChem BioAssay data set” (2004).
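How tested: cells in 96-well plates exposed to compound for 48 hours at five concentrations. At the GI50, growth is halved.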 The source made the active and inactive calls. Rule as the data show it: active = GI50 up to about 1.1 µM and inactive = higher.

Tests used:
Assay in all cases: NCI-60 cell line screen, 48 h
SK-MEL-28 = tested on: SK-MEL-28
SK-MEL-5 = tested on: SK-MEL-5
NCI-H23 = tested on: NCI-H23
HL-60 = tested on: HL-60
SF-539 = tested on: SF-539
TK-10 = tested on: TK-10
OVCAR-8 = tested on: OVCAR-8
RPMI-8226 = tested on: RPMI-8226
NCI/ADR-RES = tested on: NCI/ADR-RES
KM12 = tested on: KM12
HCT-116 = tested on: HCT-116
K562 = tested on: K562
ACHN = tested on: ACHN
A549 = tested on: A549
SR = tested on: SR
M14 = tested on: M14
T47D = tested on: T47D

Compound	GI50 (SK-MEL-28)	GI50 (SK-MEL-5)	GI50 (NCI-H23)	GI50 (HL-60)	GI50 (SF-539)	GI50 (TK-10)	GI50 (OVCAR-8)	GI50 (RPMI-8226)	GI50 (NCI/ADR-RES)	GI50 (KM12)	GI50 (HCT-116)	GI50 (K562)	GI50 (ACHN)	GI50 (A549)	GI50 (SR)	GI50 (M14)	GI50 (T47D)
Oc1nc2ccccc2c(O)c1Cc1ccccc1	> 100 µM (inactive)	> 100 µM (inactive)	> 100 µM (inactive)	> 100 µM (inactive)	> 100 µM (inactive)	> 100 µM (inactive)	> 100 µM (inactive)	> 100 µM (inactive)	> 100 µM (inactive)	> 100 µM (inactive)	> 100 µM (inactive)	> 100 µM (inactive)	> 100 µM (inactive)	> 100 µM (inactive)	> 100 µM (inactive)		
Cc1ccc(-n2nnc(C#N)c2O)cc1	> 100 µM (inactive)	> 100 µM (inactive)	> 100 µM (inactive)	> 100 µM (inactive)		> 100 µM (inactive)	> 100 µM (inactive)	> 100 µM (inactive)	> 100 µM (inactive)	> 100 µM (inactive)	> 100 µM (inactive)	> 100 µM (inactive)	> 100 µM (inactive)	> 100 µM (inactive)		> 100 µM (inactive)	> 100 µM (inactive)
COC(=O)C1CC(C=O)=C(SC)N1 (stereo not drawn)	> 50 µM (inactive)	> 50 µM (inactive)	> 50 µM (inactive)			> 50 µM (inactive)	> 50 µM (inactive)	> 50 µM (inactive)	> 50 µM (inactive)	> 50 µM (inactive)	> 50 µM (inactive)	> 50 µM (inactive)	> 50 µM (inactive)	> 50 µM (inactive)		> 50 µM (inactive)	
CN1C(=O)C(C(N)=O)C2CC1(C)Oc1ccccc12 (stereo not drawn)	> 100 µM (inactive)	> 100 µM (inactive)	> 100 µM (inactive)	> 100 µM (inactive)			> 100 µM (inactive)	> 100 µM (inactive)	> 100 µM (inactive)	> 100 µM (inactive)	> 100 µM (inactive)	> 100 µM (inactive)	> 100 µM (inactive)	> 100 µM (inactive)	> 100 µM (inactive)	> 100 µM (inactive)	> 100 µM (inactive)
CCc1nn(S(=O)(=O)c2ccc(C)cc2)c2c1CS(=O)(=O)CC2	> 100 µM (inactive)	> 100 µM (inactive)	> 100 µM (inactive)		91.4 µM (inactive)	> 100 µM (inactive)	34.9 µM (inactive)	> 100 µM (inactive)	38.1 µM (inactive)	> 100 µM (inactive)	> 100 µM (inactive)	> 100 µM (inactive)	> 100 µM (inactive)	> 100 µM (inactive)		> 100 µM (inactive)	> 100 µM (inactive)
Nc1nc2c(ncn2CC2CCC(CO)C2)c(=O)[nH]1 (stereo not drawn)	> 100 µM (inactive)	> 100 µM (inactive)			> 100 µM (inactive)	> 100 µM (inactive)		> 100 µM (inactive)	> 100 µM (inactive)	> 100 µM (inactive)	> 100 µM (inactive)	> 100 µM (inactive)	> 100 µM (inactive)	> 100 µM (inactive)		> 100 µM (inactive)	> 100 µM (inactive)
CSc1nc(NC(C)C)c2c(n1)Sc1nc3ccccc3n1N=C2	> 100 µM (inactive)	0.69 µM (active)	11.7 µM (inactive)	> 100 µM (inactive)		13.8 µM (inactive)	4.92 µM (inactive)	0.335 µM (active)	6.92 µM (inactive)	16.5 µM (inactive)	7.01 µM (inactive)	50.9 µM (inactive)	5.83 µM (inactive)	5.33 µM (inactive)	13.2 µM (inactive)	40.5 µM (inactive)	
CC(C)=c1sc(=C(C)C)c2c1=NC(C)(C)N=2	73.6 µM (inactive)	79.6 µM (inactive)	53.7 µM (inactive)	57.4 µM (inactive)	> 100 µM (inactive)	> 100 µM (inactive)	94 µM (inactive)	37.2 µM (inactive)	> 100 µM (inactive)	78.9 µM (inactive)	50.5 µM (inactive)		37.5 µM (inactive)	51.5 µM (inactive)		77.4 µM (inactive)	52.8 µM (inactive)
CSC(SC)=C(C#N)C(=O)Nc1ccc(C)cc1	> 100 µM (inactive)	> 100 µM (inactive)	> 100 µM (inactive)	37.2 µM (inactive)	> 100 µM (inactive)	> 100 µM (inactive)		42.2 µM (inactive)		> 100 µM (inactive)	49.5 µM (inactive)	75.3 µM (inactive)	> 100 µM (inactive)	> 100 µM (inactive)	63 µM (inactive)	> 100 µM (inactive)	> 100 µM (inactive)
COc1cc(NS(C)(=O)=O)ccc1N1Cc2c[nH]c3ccc4nccc1c4c23	36 µM (inactive)	23.4 µM (inactive)	39.1 µM (inactive)	23.6 µM (inactive)		39.8 µM (inactive)	35.1 µM (inactive)	17.5 µM (inactive)	> 100 µM (inactive)	34.4 µM (inactive)	26.6 µM (inactive)	22.5 µM (inactive)	> 100 µM (inactive)	> 100 µM (inactive)		42.4 µM (inactive)	25.5 µM (inactive)
CC(CN(C)C)C(C#N)(c1ccccc1)c1ccccc1 (stereo not drawn)	89.1 µM (inactive)	> 100 µM (inactive)	> 100 µM (inactive)	> 100 µM (inactive)	> 100 µM (inactive)	> 100 µM (inactive)	> 100 µM (inactive)	78.2 µM (inactive)	> 100 µM (inactive)	> 100 µM (inactive)	> 100 µM (inactive)	65.2 µM (inactive)	> 100 µM (inactive)	> 100 µM (inactive)		> 100 µM (inactive)	> 100 µM (inactive)
NC(=S)Nc1ccc2c(c1)oc1ccccc12	> 100 µM (inactive)	18.9 µM (inactive)	> 83.6 µM (inactive)	7.82 µM (inactive)		> 100 µM (inactive)	> 100 µM (inactive)	11.7 µM (inactive)	> 100 µM (inactive)	> 100 µM (inactive)	> 100 µM (inactive)	> 100 µM (inactive)	> 100 µM (inactive)	> 100 µM (inactive)	> 100 µM (inactive)	> 100 µM (inactive)	> 31.5 µM (inactive)
CCOC(=O)/C=C(/C=C\COC1CCCCO1)c1ccccc1 (stereo not drawn)	30 µM (inactive)	35 µM (inactive)	38.4 µM (inactive)	18.3 µM (inactive)		> 100 µM (inactive)	23.1 µM (inactive)	27.5 µM (inactive)	24.5 µM (inactive)	25.2 µM (inactive)	16 µM (inactive)	28.5 µM (inactive)	48 µM (inactive)	38.4 µM (inactive)	18.8 µM (inactive)	38.6 µM (inactive)	20.8 µM (inactive)
CC1=C(Cl)C[C@@H](/C(C)=C\Cl)O[C@@]1(O)C(Br)Br	59.8 µM (inactive)	24.9 µM (inactive)	41.9 µM (inactive)	6.92 µM (inactive)	33.8 µM (inactive)	29 µM (inactive)	32.1 µM (inactive)	18.2 µM (inactive)		54.1 µM (inactive)	30.4 µM (inactive)	17.3 µM (inactive)	30.5 µM (inactive)	22 µM (inactive)	19.5 µM (inactive)	22.5 µM (inactive)	
CC(=O)Nc1ccc(C(=O)NN2C(=O)CSC2c2ccccc2)cc1 (stereo not drawn)	> 100 µM (inactive)	> 100 µM (inactive)	> 100 µM (inactive)		> 100 µM (inactive)	> 100 µM (inactive)	> 100 µM (inactive)	> 100 µM (inactive)	> 100 µM (inactive)	> 100 µM (inactive)	> 100 µM (inactive)	> 100 µM (inactive)	> 100 µM (inactive)	> 100 µM (inactive)		> 100 µM (inactive)	> 100 µM (inactive)
CCOC(=O)C1=C(C)N(c2ccc(Cl)cc2)C2(O)C=CC(O)=C3C(=O)c4ccccc4C(=O)C312 (stereo not drawn)		7.96 µM (inactive)	10.1 µM (inactive)	2.37 µM (inactive)	4.16 µM (inactive)	1.71 µM (inactive)	5.11 µM (inactive)	1.8 µM (inactive)	2.49 µM (inactive)	6.97 µM (inactive)	3.2 µM (inactive)	4.23 µM (inactive)	5 µM (inactive)	4.56 µM (inactive)		2.63 µM (inactive)	3.45 µM (inactive)
O1C2C1C1OC1C1OC1C1OC21 (stereo not drawn)	> 100 µM (inactive)	> 100 µM (inactive)	> 100 µM (inactive)			> 100 µM (inactive)	> 100 µM (inactive)		> 100 µM (inactive)	> 100 µM (inactive)	> 100 µM (inactive)	> 100 µM (inactive)	> 100 µM (inactive)	> 100 µM (inactive)	> 100 µM (inactive)	> 100 µM (inactive)	> 100 µM (inactive)
COC(=O)c1cc2c(cc1O)[C@@H](NC(C)=O)CCc1cc(OC)c(OC)c(OC)c1-2	0.0731 µM (active)	0.0235 µM (active)	0.0296 µM (active)		0.0294 µM (active)	> 10 µM (inactive)	0.0577 µM (active)	0.0668 µM (active)	0.114 µM (active)	0.0283 µM (active)	0.0274 µM (active)	0.0412 µM (active)	0.111 µM (active)	0.0605 µM (active)	0.055 µM (active)	0.0454 µM (active)	> 10 µM (inactive)
NC1c2c(Cl)sc(Cl)c2C(=O)C1O (stereo not drawn)		26.9 µM (inactive)	15.6 µM (inactive)	15.4 µM (inactive)	76.2 µM (inactive)	> 100 µM (inactive)	25.9 µM (inactive)		36.9 µM (inactive)	> 100 µM (inactive)	29.2 µM (inactive)	29.4 µM (inactive)	27.5 µM (inactive)	> 100 µM (inactive)		32.3 µM (inactive)	> 100 µM (inactive)
